What was measured:
Assay in all cases: relative viability (nuclei count vs DMSO), 5 days (fraction); higher = more cells survive
Sunitinib + Trametinib = compound: CCN(CC)CCNC(=O)c1c(C)[nH]c(/C=C2\C(=O)Nc3ccc(F)cc32)c1C [Sunitinib] + CC(=O)Nc1cccc(-n2c(=O)n(C3CC3)c(=O)c3c(Nc4ccc(I)cc4F)n(C)c(=O)c(C)c32)c1 [Trametinib] (partner 0.02 µM)
Method in brief: (§1)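 Relative viability was taken as the ratio of nuclei in treated wells to nuclei in vehicle wells. Lung cancer cell lines in 1536-well plates received compounds by pin tool one day after seeding, either one drug alone or a fixed anchor-drug dose plus five library-drug doses (not always all listed) in √10 steps. Nuclei were counted on 4× images after 5 days of treatment, and values are medians of duplicate plates.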

Sunitinib + Phenformin = compound: CCN(CC)CCNC(=O)c1c(C)[nH]c(/C=C2\C(=O)Nc3ccc(F)cc32)c1C [Sunitinib] + N=C(N)NC(=N)NCCc1ccccc1 [Phenformin] (partner 250 µM)
Method in brief: as §1

Sunitinib + Pemetrexed = compound: CCN(CC)CCNC(=O)c1c(C)[nH]c(/C=C2\C(=O)Nc3ccc(F)cc32)c1C [Sunitinib] + Nc1nc2[nH]cc(CCc3ccc(C(=O)N[C@@H](CCC(=O)O)C(=O)O)cc3)c2c(=O)[nH]1 [Pemetrexed] (partner 0.2 µM)
Method in brief: as §1

Sunitinib + Navitoclax = compound: CCN(CC)CCNC(=O)c1c(C)[nH]c(/C=C2\C(=O)Nc3ccc(F)cc32)c1C [Sunitinib] + CC1(C)CCC(c2ccc(Cl)cc2)=C(CN2CCN(c3ccc(C(=O)NS(=O)(=O)c4ccc(N[C@H](CCN5CCOCC5)CSc5ccccc5)c(S(=O)(=O)C(F)(F)F)c4)cc3)CC2)C1 [Navitoclax] (partner 0.5 µM)
Method in brief: as §1

Cell Line | relative viability (Sunitinib + Trametinib; first compound 0.02 µM) | relative viability (Sunitinib + Trametinib; first compound 0.06325 µM) | relative viability (Sunitinib + Trametinib; first compound 0.2 µM) | relative viability (Sunitinib + Trametinib; first compound 0.6325 µM) | relative viability (Sunitinib + Trametinib; first compound 2 µM) | relative viability (Sunitinib + Phenformin; first compound 0.02 µM) | relative viability (Sunitinib + Phenformin; first compound 0.06325 µM) | relative viability (Sunitinib + Phenformin; first compound 0.2 µM) | relative viability (Sunitinib + Phenformin; first compound 0.6325 µM) | relative viability (Sunitinib + Phenformin; first compound 2 µM) | relative viability (Sunitinib + Pemetrexed; first compound 0.02 µM) | relative viability (Sunitinib + Pemetrexed; first compound 0.06325 µM) | relative viability (Sunitinib + Pemetrexed; first compound 0.2 µM) | relative viability (Sunitinib + Pemetrexed; first compound 0.6325 µM) | relative viability (Sunitinib + Pemetrexed; first compound 2 µM) | relative viability (Sunitinib + Navitoclax; first compound 0.02 µM) | relative viability (Sunitinib + Navitoclax; first compound 0.06325 µM) | relative viability (Sunitinib + Navitoclax; first compound 0.6325 µM) | relative viability (Sunitinib + Navitoclax; first compound 2 µM) | relative viability (Sunitinib + Navitoclax; first compound 0.2 µM)
NCI-H647 | 0.367 | 0.479 | 0.547 | 0.426 | 0.408 | 0.489 | 0.72 | 0.542 | 0.55 | 0.471 | 0.189 | 0.197 | 0.187 | 0.209 | 0.193 | 0.988 | 1.18 | 1.24 | 1.22 | –
NCI-H1944 | 0.401 | 0.423 | 0.457 | 0.437 | 0.43 | 0.183 | 0.206 | 0.214 | 0.203 | 0.199 | 0.588 | – | 0.772 | 0.684 | 0.655 | 1.03 | 1.04 | – | 1 | 1.1
NCI-H3122 | 0.289 | 0.287 | 0.231 | 0.233 | 0.299 | 0.35 | 0.387 | 0.366 | 0.361 | 0.288 | 0.201 | 0.215 | 0.202 | 0.185 | 0.205 | 0.975 | 1.04 | 1.04 | 0.983 | 1.07
HCC-15 | 0.36 | 0.316 | 0.305 | 0.352 | 0.312 | 0.424 | 0.523 | 0.588 | 0.49 | 0.404 | 0.236 | 0.228 | 0.222 | 0.204 | 0.248 | 0.705 | 0.765 | 0.744 | 0.691 | –
NCI-H1993 | 0.51 | 0.53 | 0.448 | 0.424 | 0.651 | 0.541 | 0.501 | 0.545 | 0.479 | 0.53 | 0.436 | 0.563 | 0.584 | 0.55 | 0.575 | 0.923 | 1.01 | 0.872 | 0.905 | –
NCI-H1755 | 0.763 | 0.768 | 0.92 | 0.736 | 0.767 | 0.574 | 0.672 | 0.675 | 0.692 | 0.642 | 0.427 | 0.502 | 0.636 | 0.407 | 0.52 | – | – | 1.04 | 0.993 | –
NCI-H2342 | 0.786 | 0.877 | 0.915 | 0.767 | 0.813 | 0.523 | 0.571 | 0.62 | 0.542 | 0.727 | 0.731 | 0.821 | 0.808 | 0.739 | 0.843 | – | – | – | – | –
COR-L 105 | 0.45 | 0.465 | 0.452 | 0.469 | 0.44 | 0.415 | 0.544 | 0.496 | 0.49 | 0.471 | 1.08 | 1.01 | 1.1 | 1.14 | 1.22 | 0.752 | 0.868 | 0.921 | 0.959 | 0.832
SK-LU-1 | 0.432 | 0.518 | 0.545 | 0.537 | 0.525 | 0.46 | 0.63 | 0.586 | 0.523 | 0.409 | 0.944 | 1 | 1.1 | 1.12 | 0.884 | 0.768 | 0.6 | – | 0.727 | 0.796
NCI-H2228 | 0.574 | 0.568 | 0.593 | 0.558 | 0.285 | 0.332 | 0.405 | 0.315 | 0.341 | 0.322 | 0.343 | 0.313 | 0.37 | 0.349 | 0.349 | 0.87 | 0.792 | 0.96 | 0.524 | 1
NCI-H1395 | 0.92 | – | 1.22 | 0.988 | 0.99 | 0.462 | 0.415 | 0.446 | 0.487 | 0.482 | 0.845 | 0.937 | 0.935 | 1.1 | 0.91 | 1.03 | 1.21 | 1.27 | 1.17 | 1.34
NCI-H1648 | 0.502 | 0.529 | 0.524 | 0.445 | 0.499 | – | – | – | – | – | 0.897 | 0.737 | 0.898 | 0.704 | 0.835 | – | – | – | – | –
NCI-H650 | 0.917 | 1.04 | 1.16 | 0.988 | 1.01 | 0.444 | 0.46 | 0.428 | 0.49 | 0.465 | 0.877 | 0.958 | 0.914 | 1.05 | 1.01 | – | – | – | – | –
A549 | – | – | – | – | – | 0.166 | 0.214 | 0.148 | 0.126 | 0.155 | – | – | – | – | – | 1.16 | 1.3 | – | 1.07 | 1.36
LC-2-ad | 0.894 | 0.951 | 0.896 | 0.825 | 0.722 | 0.526 | 0.574 | 0.643 | 0.61 | 0.573 | 0.266 | 0.275 | 0.291 | 0.303 | 0.26 | 0.381 | 0.495 | 0.406 | 0.355 | 0.714
EMC-BAC-2 | 0.868 | 0.932 | 0.966 | 0.99 | 1.12 | 0.489 | 0.566 | 0.595 | 0.559 | 0.543 | 0.427 | 0.426 | 0.472 | 0.481 | 0.464 | 1.15 | – | 1.09 | 1.22 | 1.31
EBC-1 | – | – | – | – | – | – | – | – | – | – | – | – | – | – | – | 0.467 | 0.472 | 0.557 | 0.626 | 0.417
NCI-H1975 | 0.322 | 0.361 | 0.33 | 0.421 | 0.316 | 0.399 | 0.442 | 0.425 | 0.427 | 0.393 | 0.289 | 0.318 | 0.317 | 0.298 | 0.305 | 1.07 | 1.15 | 1.12 | 1.12 | 1.11
